In US20230172204A1 (BASF SE, priority 2020, published 2023):

Assays:
[1] = tested on: Phakopsora pachyrhizi (F129L); test: Protective control of soybean rust on soybeans (PHAKPA P6); assay type: in vivo; details: for PHAKPA (F129L) Disease level (%) P6 at 4 ppm / PHAKPA (F129L) Disease level (%) P6 at 16 ppm: P6 protective, % diseased leaf area; for % PHAKPA (F129L) Disease level P6 at 4 ppm: protective P6, 4 ppm; for % PHAKPA (F129L) Disease level P6 at 4 ppm / % PHAKPA (F129L) Disease level P6 at 16 ppm: soybean rust F129L; for % PHAKPA (F129L) Disease level P6 at 16 ppm: protective P6, 16 ppm
[2] = tested on: Phakopsora pachyrhizi (F129L); test: Protective control of soybean rust on soybeans (PHAKPA P2); assay type: in vivo; details: for PHAKPA (F129L) Disease level (%) P2 at 4 ppm / PHAKPA (F129L) Disease level (%) P2 at 16 ppm: P2 protective, % diseased leaf area; for % PHAKPA (F129L) Disease level P2 at 4 ppm: protective P2, 4 ppm; for % PHAKPA (F129L) Disease level P2 at 4 ppm / % PHAKPA (F129L) Disease level P2 at 16 ppm: soybean rust F129L; for % PHAKPA (F129L) Disease level P2 at 16 ppm: protective P2, 16 ppm

| SMILES | PHAKPA (F129L) Disease level (%) P6 at 4 ppm [1] | % PHAKPA (F129L) Disease level P6 at 4 ppm [1] | % PHAKPA (F129L) Disease level P6 at 16 ppm [1] | PHAKPA (F129L) Disease level (%) P2 at 4 ppm [2] | % PHAKPA (F129L) Disease level P2 at 4 ppm [2] | % PHAKPA (F129L) Disease level P2 at 16 ppm [2] | PHAKPA (F129L) Disease level (%) P6 at 16 ppm [1] | PHAKPA (F129L) Disease level (%) P2 at 16 ppm [2] |
| --- | --- | --- | --- | --- | --- | --- | --- | --- |
| CNC(=O)/C(=N/OC)c1cccc(C)c1CO/N=C(\C)c1ccc(Cl)c(Cl)c1 [Ex. 41] | 35% | 36% | 14% | 4% | 15% | 9% |  |  |
| CO/N=C(/C(=O)OC)c1cccc(C)c1CO/N=C(\C)c1cccc(Br)c1 [Ex. 56] |  | 67% | 19% |  | 43% | 24% | 15% | 32% |
| CNC(=O)/C(=N/OC)c1cccc(C)c1CO/N=C(\C)c1cccc(Br)c1 [Ex. 58] | 4% | 4% | 0% | 0% | 2% | 0% |  |  |
| CNC(=O)/C(=N/OC)c1cccc(C)c1CO/N=C(\C)c1ccc(Cl)c(C(F)(F)F)c1 [Ex. 60] |  | 53% | 2% |  | 23% | 1% | 0% | 0% |
| CNC(=O)/C(=N/OC)c1cccc(C)c1CO/N=C(/c1ccccc1)C(F)F [Ex. 73] | 37% | 19% |  | 1% | 0% |  |  |  |
| CO/N=C(/C(=O)OC)c1cccc(C)c1CO/N=C(\C)c1cccc(F)c1 [Ex. 86] |  | 23% | 3% |  | 12% | 3% | 7% | 6% |
| CO/N=C(/C(=O)OC)c1cccc(C)c1CO/N=C(\C)c1cccc(C#N)c1 [Ex. 104] |  | 19% | 11% |  | 22% | 15% | 28% | 37% |
| CNC(=O)/C(=N/OC)c1cccc(C)c1CO/N=C(\C)c1ccc(-c2ccccc2)cc1 [Ex. 113] |  | 41% | 25% |  | 25% | 26% | 6% | 17% |
| CNC(=O)/C(=N/OC)c1cccc(C)c1CO/N=C(\C)c1ccccc1Br [Ex. 120] |  | 90% | 8% |  | 43% | 4% | 15% | 6% |
| CNC(=O)/C(=N/OC)c1cccc(C)c1CO/N=C(\C)c1ccccc1OC [Ex. 126] |  | 95% | 70% |  | 87% | 34% | 60% | 32% |
| CNC(=O)/C(=N/OC)c1cccc(C)c1CO/N=C(\C)c1cc(Cl)ccc1Cl [Ex. 130] | 67% | 40% | 1% | 33% | 20% | 1% |  |  |
| CO/N=C(/C(=O)OC)c1cccc(C)c1CO/N=C(\C)c1ccc(Cl)cc1 [Ex. 154] |  | 63% | 9% |  | 30% | 13% | 17% | 25% |
| CO/N=C(/C(=O)OC)c1cccc(C)c1CO/N=C(\C)c1ccc(C#N)cc1 [Ex. 155] |  | 93% | 20% |  | 97% | 30% | 18% | 23% |
| CNC(=O)/C(=N/OC)c1cccc(C)c1CO/N=C(\C)c1ccc(C#N)cc1 [Ex. 159] |  | 28% | 1% |  | 28% | 2% | 0% | 0% |
| CCc1ccc(/C(C)=N/OCc2c(C)cccc2/C(=N\OC)C(=O)NC)cc1 [Ex. 165] | 27% | 17% | 0% | 0% | 0% | 0% |  |  |
